How the values were obtained:
[1] = cited from earlier work
[2] = Bleeding events (ISTH definition) in NVAF patients receiving apixaban; association by odds ratio; assay type: in vivo, human
Description: The severity of bleeding was evaluated based on the definition provided by the International Society on Thrombosis and Hemostasis. In brief, events leading to a reduction in hemoglobin levels by at least 2 g/dL, fatal bleeding, or events occurring in critical body locations were considered major bleeding events. Events that required hospitalization, medical or surgical intervention, or a change in antithrombotic treatment were considered clinically relevant non-major. Any acute bleeding event not meeting the criteria for major or clinically relevant non-major bleeding was classified as a minor bleeding episode.
In all enrolled patients, allele-specific real-time PCR was used to identify polymorphic variants of ABCB1 (rs1045642 3435C>T, rs2032582 2677G>T/A, rs1128503 1236C>T), CYP3A4*22 (rs35599367), and CYP3A5*3 (rs776746, 6986A>G). Commercial kits (OOO Syntol, Moscow, Russia) were employed on a CFX96 Touch™ Real-Time PCR Detection System (Bio-Rad, Hercules, CA, USA).
The study data were subjected to statistical processing using both parametric and nonparametric methods. Statistical analyses were performed with the standard software package StatSoft Statistica 10.0 (Dell, Round Rock, TX, USA). Quantitative variables were assessed for normality using the Kolmogorov–Smirnov test (for sample sizes > 50), as well as by evaluating skewness and kurtosis. For quantitative variables with a normal distribution, the data were organized into variational series, and arithmetic means (M) with standard deviations (SD) were calculated. Comparisons of means in normally distributed quantitative datasets were performed using Student’s t-test, with obtained values evaluated against critical thresholds. For categorical variables, differences in frequency distributions were assessed using the χ^2 test, and Fisher’s exact test was applied when the number of observations was small. To quantify the effect of genetic markers on complication occurrence, odds ratios (ORs) with 95% confidence intervals (CIs) were calculated. Statistical significance for all analyses was defined at p < 0.05. For genetic analyses, multiple-testing correction was performed using the Benjamini–Hochberg false discovery rate (FDR) procedure.

Question: For COc1ccc(-n2nc(C(N)=O)c3c2C(=O)N(c2ccc(N4CCCCC4=O)cc2)CC3)cc1 [apixaban], which “Interindividual variability in exposure” value [1] is on record?
Answer: ~30%

Question: And the “Intraindividual variability in exposure” value [1]?
Answer: approximately 20%

Question: And the “Bleeding event in the context of surgery” value ([2]; both, human, in vivo)?
Answer: 1 case

Question: What about the Epistaxis ([2]; both, human, in vivo) of the same molecule?
Answer: 31 cases

Question: What about the Gastrointestinal bleeding ([2]; both, human, in vivo) of the same molecule?
Answer: 3 cases

Question: What about the Hematomas and ecchymoses ([2]; both, human, in vivo) of the same molecule?
Answer: 3 cases

Question: And the Peptic ulcer exacerbation ([2]; both, human, in vivo)?
Answer: 1 case

Question: And the Uterine bleeding ([2]; both, human, in vivo)?
Answer: 1 case

Question: And the “OR of bleeding events by sex” value ([2]; both, human, in vivo, 1.95 years)?
Answer: 1.119

Question: With CCC(C)(C)C(=O)O[C@H]1C[C@@H](C)C=C2C=C[C@H](C)[C@H](CC[C@@H]3C[C@@H](O)CC(=O)O3)[C@H]21 [simvastatin] as the molecule, how does the “Association with incidence of bleeding events” value ([2]; simvastatin (n = 8) as co-medication with apixaban) read?
Answer: did not show an increase in incidence of bleeding events

Reference: article PMC12562637 (Genes, 2025)
